Reference: ChEMBL document CHEMBL1201862, “PubChem BioAssay data set” (2004)
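Interpolation was linear, between the two tested concentrations surrounding the appropriate level; five concentrations were tested over 48 hours in 96-well plates. Abbreviation: GI50, concentration required for 50% inhibition of growth.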 The source made the active and inactive calls. No stated cut-off is given here; in the data, active = GI50 up to about 1.1 µM and inactive = higher.

How the values were obtained:
Assay in all cases: NCI-60 cell line screen, 48 h
786-0 = test system: 786-0
A498 = test system: A498
A549 = test system: A549
ACHN = test system: ACHN
CAKI-1 = test system: CAKI-1
CCRF-CEM = test system: CCRF-CEM
COLO 205 = test system: COLO 205
DLD-1 = test system: DLD-1
DMS-114 = test system: DMS-114
DMS-273 = test system: DMS-273
EKVX = test system: EKVX
HCC 2998 = test system: HCC 2998
HCT-15 = test system: HCT-15
HL-60 = test system: HL-60
HOP-18 = test system: HOP-18
HOP-62 = test system: HOP-62
HT-29 = test system: HT-29
IGROV-1 = test system: IGROV-1
K562 = test system: K562
KM-20L2 = test system: KM-20L2
KM12 = test system: KM12
LOX IMVI = test system: LOX IMVI
LXFL 529 = test system: LXFL 529
M14 = test system: M14
M19-MEL = test system: M19-MEL
MOLT-4 = test system: MOLT-4
Malme-3M = test system: Malme-3M
NCI-H226 = test system: NCI-H226
NCI-H23 = test system: NCI-H23
NCI-H460 = test system: NCI-H460
NCI-H522 = test system: NCI-H522
OVCAR-3 = test system: OVCAR-3
OVCAR-4 = test system: OVCAR-4
OVCAR-5 = test system: OVCAR-5
OVCAR-8 = test system: OVCAR-8
RPMI-8226 = test system: RPMI-8226
RXF 631 = test system: RXF 631
SF-268 = test system: SF-268
SF-295 = test system: SF-295
SF-539 = test system: SF-539
SK-MEL-28 = test system: SK-MEL-28
SK-MEL-2 = test system: SK-MEL-2
SK-MEL-5 = test system: SK-MEL-5
SK-OV-3 = test system: SK-OV-3
SN12C = test system: SN12C
SNB-19 = test system: SNB-19
SNB-75 = test system: SNB-75
SNB-78 = test system: SNB-78
SW-620 = test system: SW-620
TK-10 = test system: TK-10
U-251 = test system: U-251
UACC-257 = test system: UACC-257
UACC-62 = test system: UACC-62
UO-31 = test system: UO-31
XF498 = test system: XF498
HCT-116 = test system: HCT-116
HOP-92 = test system: HOP-92
RXF 393 = test system: RXF 393
SR = test system: SR

For `Cc1cc2c(cc1C)[n+]([O-])c(C(=O)/C=C/c1ccccc1Cl)c(C)[n+]2[O-]`, the GI50 (786-0) was 16 µM (inactive), the GI50 (A498) was 36.6 µM (inactive) and the GI50 (A549) was 33.9 µM (inactive). For the same compound, the GI50 (ACHN) was 24.5 µM (inactive), the GI50 (CAKI-1) was 21.1 µM (inactive) and the GI50 (CCRF-CEM) was 37.2 µM (inactive). The GI50 (COLO 205) was 20.7 µM (inactive), the GI50 (DLD-1) was 19.5 µM (inactive) and the GI50 (DMS-114) was 21.8 µM (inactive). For the same compound, the GI50 (DMS-273) was 29.4 µM (inactive), the GI50 (EKVX) was 49.2 µM (inactive) and the GI50 (HCC 2998) was 17.1 µM (inactive). The GI50 (HCT-15) was 22.5 µM, the GI50 (HL-60) was 29.9 µM (inactive) and the GI50 (HOP-18) was 29.3 µM (inactive). The GI50 (HOP-62) was 24.6 µM (inactive), the GI50 (HT-29) was 34.8 µM (inactive) and the GI50 (IGROV-1) was 20.1 µM (inactive). The GI50 (K562) was 37.9 µM (inactive), the GI50 (KM-20L2) was 35.2 µM (inactive) and the GI50 (KM12) was 31.8 µM (inactive). The GI50 (LOX IMVI) was 31 µM (inactive), the GI50 (LXFL 529) was 18.2 µM (inactive) and the GI50 (M14) was 24.1 µM (inactive). For the same compound, the GI50 (M19-MEL) was 36 µM (inactive), the GI50 (MOLT-4) was 39.5 µM (inactive) and the GI50 (Malme-3M) was 31.8 µM (inactive). For the same compound, the GI50 (NCI-H226) was > 100 µM (inactive), the GI50 (NCI-H23) was 19.3 µM (inactive) and the GI50 (NCI-H460) was 26.2 µM (inactive). The GI50 (NCI-H522) was 12.7 µM (inactive), the GI50 (OVCAR-3) was 28.7 µM (inactive) and the GI50 (OVCAR-4) was 50.7 µM (inactive). For the same compound, the GI50 (OVCAR-5) was 34.4 µM (inactive), the GI50 (OVCAR-8) was 26.1 µM (inactive) and the GI50 (RPMI-8226) was 45 µM (inactive). For the same compound, the GI50 (RXF 631) was 24.7 µM (inactive), the GI50 (SF-268) was 27.9 µM (inactive) and the GI50 (SF-295) was 32.1 µM (inactive). The GI50 (SF-539) was 19.9 µM (inactive), the GI50 (SK-MEL-28) was 26.9 µM (inactive) and the GI50 (SK-MEL-2) was 27.5 µM (inactive). For the same compound, the GI50 (SK-MEL-5) was 24.4 µM (inactive), the GI50 (SK-OV-3) was 36 µM (inactive) and the GI50 (SN12C) was 33 µM (inactive). For the same compound, the GI50 (SNB-19) was 43.2 µM (inactive), the GI50 (SNB-75) was 19.2 µM (inactive) and the GI50 (SNB-78) was 33.7 µM (inactive). For the same compound, the GI50 (SW-620) was 35.1 µM (inactive), the GI50 (TK-10) was 25.4 µM (inactive) and the GI50 (U-251) was 28.2 µM (inactive). For the same compound, the GI50 (UACC-257) was 23 µM (inactive), the GI50 (UACC-62) was 18.3 µM (inactive) and the GI50 (UO-31) was 18 µM (inactive). The GI50 (XF498) was 18.5 µM (inactive).

`O=[N+]([O-])c1ccccc1S(=O)(=O)c1ccccc1` was tested, and the GI50 (A498) was > 100 µM (inactive), the GI50 (A549) was > 100 µM (inactive) and the GI50 (ACHN) was > 100 µM (inactive). The GI50 (CCRF-CEM) was > 100 µM (inactive), the GI50 (COLO 205) was > 100 µM (inactive) and the GI50 (DLD-1) was > 100 µM (inactive). For the same compound, the GI50 (DMS-114) was 64 µM (inactive), the GI50 (DMS-273) was > 100 µM (inactive) and the GI50 (EKVX) was > 100 µM (inactive). For the same compound, the GI50 (HCC 2998) was > 100 µM (inactive), the GI50 (HCT-116) was > 100 µM (inactive) and the GI50 (HCT-15) was over 100 µM. The GI50 (HL-60) was 31.2 µM (inactive), the GI50 (HOP-18) was > 100 µM (inactive) and the GI50 (HOP-62) was > 100 µM (inactive). For the same compound, the GI50 (HOP-92) was 80.7 µM (inactive), the GI50 (HT-29) was > 100 µM (inactive) and the GI50 (IGROV-1) was > 100 µM (inactive). The GI50 (K562) was > 100 µM (inactive), the GI50 (KM-20L2) was > 100 µM (inactive) and the GI50 (KM12) was > 100 µM (inactive). The GI50 (LOX IMVI) was > 100 µM (inactive), the GI50 (LXFL 529) was > 100 µM (inactive) and the GI50 (M14) was > 100 µM (inactive). For the same compound, the GI50 (M19-MEL) was 39.4 µM (inactive), the GI50 (MOLT-4) was > 100 µM (inactive) and the GI50 (Malme-3M) was > 100 µM (inactive). The GI50 (NCI-H226) was 88.1 µM (inactive), the GI50 (NCI-H23) was 89.7 µM (inactive) and the GI50 (NCI-H460) was > 100 µM (inactive). The GI50 (OVCAR-3) was > 100 µM (inactive), the GI50 (OVCAR-4) was 52.6 µM (inactive) and the GI50 (OVCAR-5) was > 100 µM (inactive). For the same compound, the GI50 (OVCAR-8) was > 100 µM (inactive), the GI50 (RPMI-8226) was > 100 µM (inactive) and the GI50 (RXF 393) was 77.8 µM (inactive). The GI50 (RXF 631) was 18.5 µM (inactive), the GI50 (SF-268) was > 100 µM (inactive) and the GI50 (SF-295) was > 100 µM (inactive). The GI50 (SF-539) was > 100 µM (inactive), the GI50 (SK-MEL-28) was > 100 µM (inactive) and the GI50 (SK-MEL-2) was > 100 µM (inactive). For the same compound, the GI50 (SK-MEL-5) was 81.7 µM (inactive), the GI50 (SK-OV-3) was > 100 µM (inactive) and the GI50 (SN12C) was > 100 µM (inactive). The GI50 (SNB-75) was 23 µM (inactive), the GI50 (SR) was > 100 µM (inactive) and the GI50 (SW-620) was > 100 µM (inactive). For the same compound, the GI50 (TK-10) was > 100 µM (inactive), the GI50 (U-251) was > 100 µM (inactive) and the GI50 (UACC-257) was > 100 µM (inactive). For the same compound, the GI50 (UACC-62) was 54.7 µM (inactive), the GI50 (UO-31) was 28.2 µM (inactive) and the GI50 (XF498) was 0.321 µM (active).

`O=[N+]([O-])c1nccn1CC(O)CN1CC1` (stereo not given) was tested, and the GI50 (786-0) was 65.6 µM (inactive), the GI50 (A498) was > 100 µM (inactive) and the GI50 (A549) was > 100 µM (inactive). For the same compound, the GI50 (ACHN) was 29.1 µM (inactive), the GI50 (CAKI-1) was 39 µM (inactive) and the GI50 (CCRF-CEM) was 24.7 µM (inactive). For the same compound, the GI50 (COLO 205) was 44.6 µM (inactive), the GI50 (DLD-1) was 69.3 µM (inactive) and the GI50 (DMS-114) was 50.7 µM (inactive). The GI50 (DMS-273) was 27.4 µM (inactive), the GI50 (EKVX) was > 100 µM (inactive) and the GI50 (HCT-116) was 47.6 µM (inactive). For the same compound, the GI50 (HCT-15) was 58.6 µM, the GI50 (HL-60) was 24.8 µM (inactive) and the GI50 (HOP-18) was > 100 µM (inactive). The GI50 (HOP-62) was 74.3 µM (inactive), the GI50 (HT-29) was 56.6 µM (inactive) and the GI50 (IGROV-1) was 71.3 µM (inactive). The GI50 (K562) was 46 µM (inactive), the GI50 (KM-20L2) was 61.2 µM (inactive) and the GI50 (KM12) was 66.8 µM (inactive). For the same compound, the GI50 (LXFL 529) was 79.4 µM (inactive), the GI50 (M14) was > 100 µM (inactive) and the GI50 (M19-MEL) was 63.4 µM (inactive). The GI50 (MOLT-4) was 32 µM (inactive), the GI50 (Malme-3M) was > 100 µM (inactive) and the GI50 (NCI-H226) was 94 µM (inactive). For the same compound, the GI50 (NCI-H23) was 36.4 µM (inactive), the GI50 (NCI-H460) was 27.6 µM (inactive) and the GI50 (NCI-H522) was 21.5 µM (inactive). For the same compound, the GI50 (OVCAR-3) was 25.5 µM (inactive), the GI50 (OVCAR-4) was 74.5 µM (inactive) and the GI50 (OVCAR-5) was > 100 µM (inactive). The GI50 (OVCAR-8) was 37.8 µM (inactive), the GI50 (RPMI-8226) was 49.4 µM (inactive) and the GI50 (RXF 393) was 25.5 µM (inactive). The GI50 (RXF 631) was 40 µM (inactive), the GI50 (SF-268) was 91.6 µM (inactive) and the GI50 (SF-295) was > 100 µM (inactive). For the same compound, the GI50 (SF-539) was 55.6 µM (inactive), the GI50 (SK-MEL-28) was > 100 µM (inactive) and the GI50 (SK-MEL-2) was 41.6 µM (inactive). The GI50 (SK-MEL-5) was 71.8 µM (inactive), the GI50 (SK-OV-3) was 35.1 µM (inactive) and the GI50 (SN12C) was 61.8 µM (inactive). For the same compound, the GI50 (SNB-19) was > 100 µM (inactive), the GI50 (SNB-75) was 42.8 µM (inactive) and the GI50 (SNB-78) was 78 µM (inactive). For the same compound, the GI50 (SR) was 27.2 µM (inactive), the GI50 (SW-620) was 63.8 µM (inactive) and the GI50 (TK-10) was > 100 µM (inactive). For the same compound, the GI50 (U-251) was 35.6 µM (inactive), the GI50 (UACC-257) was 83.9 µM (inactive) and the GI50 (UACC-62) was 44.8 µM (inactive). For the same compound, the GI50 (UO-31) was 37.8 µM (inactive) and the GI50 (XF498) was > 100 µM (inactive).
